What was measured:
[1] = pKa determination by titration in water; assay type: physicochemical
[2] = pKa by ultraviolet spectrophotometric determination in water; assay type: physicochemical
[3] = target: T1, human leukocyte elastase (Homo sapiens, UniProt P08246); assay: Inhibition of human leukocyte elastase, in vitro (Ki* = koff/kon); assay type: biochemical; settings: Ki* = koff/kon (rate of reactivation divided by rate of inactivation of the enzyme); calculated from measured koff and kon
T1 sequence (P08246 30-267): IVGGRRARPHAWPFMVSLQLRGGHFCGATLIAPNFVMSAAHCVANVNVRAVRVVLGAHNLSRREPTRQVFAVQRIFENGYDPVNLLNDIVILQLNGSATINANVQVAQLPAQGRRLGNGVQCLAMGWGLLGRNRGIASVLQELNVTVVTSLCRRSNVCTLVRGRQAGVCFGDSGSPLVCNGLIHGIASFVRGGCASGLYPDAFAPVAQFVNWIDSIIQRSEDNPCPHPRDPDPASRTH
Method: Ki*, which is defined as the rate of reactivation of the enzyme divided by the rate of inactivation of the enzyme (koff/on), was therefore determined instead. The values of koff and kon were measured and Ki* was then calculated.
The value of kon was determined by measuring the enzyme activity of an aliquot of the enzyme as a function of the time after addition of the test compound (inhibitor). […] The value of kon was then obtained by the equation kon = kobs[I] wherein [I] is the concentration of the inhibitor. The value of koff was similarly determined, and Ki* was then obtained by the equation Ki* = koff/kon.

| SMILES | pKa [1] | pKa [2] | Ki [3] |
| --- | --- | --- | --- |
| N#Cc1nn[nH]c1C#N [1,2,3-triazole-4,5-dinitrile] | 1.6 |  |  |
| Sc1nnnn1-c1ccccc1 [1-phenyltetrazole-5-thiol] |  | 2.9 |  |
| COC(=O)c1nn[nH]c1C(=O)OC [1,2,3-triazole-4,5-dicarboxylic acid dimethyl ester] | 4.4 |  |  |
| COc1cc(C(C)C)c2c(c1)S(=O)(=O)N(Cn1nnc(S(=O)(=O)C(C)(C)C)c1S(=O)(=O)C(C)(C)C)C2=O [Example 1, 2-[4,5-di(t-butylsulfonyl)-1,2,3-triazol-1-yl]methyl-4-isopropyl-6-methoxysaccharin] |  |  | 0.024 nM |
| NC(=O)c1nn[nH]c1C(N)=O [1,2,3-triazole-4,5-dicarboxamide] |  | 5.3 |  |
| COc1cc(C(C)C)c2c(c1)S(=O)(=O)N(COC(=O)c1c(Cl)ccc(OCCN3CCOCC3)c1Cl)C2=O [Example 2, 2-{2,6-dichloro-3-[2-(4-morpholinylethoxy)]benzoyloxymethyl}-4-isopropyl-6-methoxysaccharin] |  |  | 0.014 nM |

Source: EP0542371A1, “Saccharin derivative proteolytic enzyme inhibitors” (STERLING WINTHROP INC., priority 1991, dated 1993)
